This note sets out measurements from patent US20240150711A1, “PERSONALIZED REDIRECTION AND REPROGRAMMING OF T CELLS FOR PRECISE TARGETING OF TUMORS” (Dana-Farber Cancer Institute, Inc., priority 2021, published 2024).

In this assay the test system is Tcf7. In words: Tcf7 protein levels by intracellular flow cytometry in CD8 T cells cultured with neutralizing antibodies or added cytokines. It is filed as cell-based. The following applies: naïve CD8 T cells from wild-type mice, anti-CD3/anti-CD28 stimulation, cultured 1 week in IL2, IL7, IL15, IL21; versus isotype antibodies. From the text: Next, it was sought to determine whether the effects of blocking IFN-γ signaling on the Tcf7+ phenotype could be recapitulated using a method separate from CRISPR-deletion, such as with neutralizing antibodies. As such, antibodies to both the Ifn-gamma and Ifn-gamma receptor genes were used. Naïve CD8 T cells were isolated from wild-type mice and cultured in the presence of either isotype-control or a combination of Ifn-gamma and IfngR neutralizing antibodies at various dosing levels or in the presence of added cytokines (either IFN-gamma, IFN-alpha, or IL12), then stimulated with anti-CD3/anti-CD28 antibodies and cultured for 1 week in IL2, IL7, IL15, and IL21, and Tcf7 protein levels were quantified by intracellular flow cytometry, as shown in FIG. 11.
In general terms: Flow cytometry measures light scatter and fluorescence of single cells or particles in a stream.

Turning to interferon-γ: added cytokine, the “Tcf7 expression (Tcf7 protein levels)” value is given as “no effect on Tcf7 expression”.
